Laboratory results published in patent US12059393B2, “Compositions for topical treatment of radiation dermatitis” (Akos Biosciences, Inc, priority 2022, dated 2024).

How the values were obtained:
[1] = system: 3D in vitro skin model containing epidermal keratinocytes and dermal fibroblasts; experiment: Gene expression changes (178 genes) in 3D in vitro skin model; format: cell-based; conditions: for Regulated genes (function): UV exposed tissues, baseline Group K
Method: A 3D in vitro skin model containing epidermal keratinocytes and dermal fibroblasts was used. Some tissues were irradiated with 200 mJ UVB/cm^2. Test materials were applied topically for 24 hours (after UVB exposure) and an MTT assay was used to check the viability of cells. The following treatment groups were used: • olive oil (no CBD); • CBD in olive oil in concentrations of 30, 60, 120, and 250 mg/mL; • No treatment; and • Triton-X® as positive control.
Next, changes in gene expression for 178 genes were measured in tissues. Statistical significance was determined using unpaired t-test, P<0.05, N=4.

[2] = system: acute radiation-induced dermatitis; experiment: Skin redness scoring in mouse radiation dermatitis model; format: in vivo, Balb/c mice; design: key to Redness score (mean): visual redness score, scale 0 to 3 in 0.5 increments; conditions: for Redness score % Change CBD vs. Group 3: vs olive oil only; for Redness score % Change CBD vs. Group 2: vs radiation only
Method: A study was performed on mice to determine the efficacy of topically-dosed CBD in an olive oil vehicle for the treatment of acute radiation-induced dermatitis. Three different CBD dosages were used— 30 mg/mL (3 wt %), 120 mg/mL (12 wt %), and 250 mg/mL (25 wt %).
144 female Balb/c mice with an average starting body weight (±SEM) of 17.96±0.12 grams were randomized into six (6) groups of 24 animals each, as follows:
The control group (Group 1) was not irradiated. The animals in Groups 2-6 were anesthetized via a single intraperitoneal injection of xylazine and ketamine prior to being administered a single dose of 30 Grays (Gy) of radiation directed at a 2 cm×4 cm patch of shaved dorsal skin on Day 0. Radiation was generated by a 160 kVp (15-ma) X-ray source at a focal distance of 10 cm, hardened with a 0.35 mm Cu filtration system at a rate of approximately 3.2 Gy/minute.
Dosing for animals in Groups 3-6 began on Day 0 immediately after radiation. Treatments were administered topically (0.1 mL per animal) daily from Days 0-28.
Starting on Day 8 and continuing every other day thereafter (Days 8-28), each animal was evaluated for skin redness and dermatitis, and photographed for subsequent blinded scoring of dermatitis at the completion of the study. Body weight was taken daily.
Skin redness was scored visually by comparison to a photographic scale, and reported on a scale of 0 to 3 in 0.5 unit increments. The scale is described in the table below:
Data were evaluated using one-way ANOVA with Dunnett's multiple comparisons test to compare all groups to the vehicle control group using GraphPad Prism 8.4.3 (La Jolla, CA Duration of dermatitis data was evaluated using the Chi-square test to compare all groups to the vehicle-control group and radiation only group using SigmaPlot 11.0 (Systat Software, Inc.). Statistical significance was achieved when p<0.05.

SMILES: C=C(C)[C@@H]1CCC(C)=C[C@H]1c1c(O)cc(CCCCC)cc1O [CBD, 2-[(1R,6R)-6-Isopropenyl-3-methylcyclohex-2-en-1-yl]-5-pentylbenzene-1,3-diol]
- Regulated genes (function) ([1]; 30 mg/mL CBD in olive oil (Group G)): associated with cell renewal, tissue remodeling, anti-apoptotic pathway, and extracellular matrix integrity
- Regulated genes (function) ([1]; 120 mg/mL CBD in olive oil (Group I)): associated with antioxidant/stress response
- Genes with FC of 2 or greater ([1]; CBD in olive oil 30-250 mg/mL (Groups B-E), healthy tissues, baseline Group A (olive oil)): four
- Redness score (mean) ([2]; CBD-treated groups condensed (30, 120, 250 mg/mL), Day 8): 0.81
- Redness score (mean) ([2]; CBD-treated groups condensed, Day 10): 1.06
- Redness score (mean) ([2]; CBD-treated groups condensed, Day 12): 1.07
- Redness score (mean) ([2]; CBD-treated groups condensed, Day 14): 1.16
- Redness score (mean) ([2]; CBD-treated groups condensed, Day 16): 1.43
- Redness score (mean) ([2]; CBD-treated groups condensed, Day 18): 1.40
- Redness score (mean) ([2]; CBD-treated groups condensed, Day 20): 1.43
- Redness score (mean) ([2]; CBD-treated groups condensed, Day 22): 1.50
- Redness score (mean) ([2]; CBD-treated groups condensed, Day 24): 1.18
- Redness score (mean) ([2]; CBD-treated groups condensed, Day 26): 1.04
- Redness score (mean) ([2]; CBD-treated groups condensed, Day 28): 0.89
- Mean redness scores compared against Group 2 (radiation only) ([2]; CBD-treated groups considered together, p<0.05): statistically significant reduction
- Redness scores compared to Group 2 ([2]; CBD-treated groups, after Day 14): consistently lower
- Redness scores compared to Group 3 (olive oil only) ([2]; CBD-treated groups, all time points): consistently lower
- Redness score % Change CBD vs. Group 3 ([2]; Day 8): −16.13%
- Redness score % Change CBD vs. Group 3 ([2]; Day 10): −30.61%
- Redness score % Change CBD vs. Group 3 ([2]; Day 12): −32.68%
- Redness score % Change CBD vs. Group 3 ([2]; Day 14): −27.45%
- Redness score % Change CBD vs. Group 3 ([2]; Day 16): −29.93%
- Redness score % Change CBD vs. Group 3 ([2]; Day 18): −21.71%
- Redness score % Change CBD vs. Group 3 ([2]; Day 20): −23.70%
- Redness score % Change CBD vs. Group 3 ([2]; Day 22): −32.08%
- Redness score % Change CBD vs. Group 3 ([2]; Day 24): −25.44%
- Redness score % Change CBD vs. Group 3 ([2]; Day 26): −30.56%
- Redness score % Change CBD vs. Group 3 ([2]; Day 28): −42.34%
- Redness score % Change CBD vs. Group 2 ([2]; Day 8): 87.50%
- Redness score % Change CBD vs. Group 2 ([2]; Day 12): 3.83%
- Redness score % Change CBD vs. Group 2 ([2]; Day 14): −3.65%
- Redness score % Change CBD vs. Group 2 ([2]; Day 16): −21.32%
- Redness score % Change CBD vs. Group 2 ([2]; Day 18): −24.73%
- Redness score % Change CBD vs. Group 2 ([2]; Day 20): −25.07%
- Redness score % Change CBD vs. Group 2 ([2]; Day 22): −34.00%
- Redness score % Change CBD vs. Group 2 ([2]; Day 24): −42.28%
- Redness score % Change CBD vs. Group 2 ([2]; Day 26): −45.44%
- Redness score % Change CBD vs. Group 2 ([2]; Day 28): −45.68%
